Among the data in patent US8304447B2, “2-acylaminopropoanol-type glucosylceramide synthase inhibitors” (Genzyme Corporation, priority 2007, dated 2012) are IC50 values, retold here.

In this assay the test system is GM3. The assay can be described thus: GM3 Elisa assay. Conditions: B16-FO cells, read-out: IC50_uM_Mean. It is filed as cell-based. The essentials:
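Murine B16-FO melanoma cells attached 6 h on collagen, then exposed to compounds for 2 days at 37 °C. After formaldehyde fixation, cell-surface GM3 (NeuAc) was detected by anti-GM3 IgM and peroxidase anti-mouse IgM with Quantablu fluorescence (Ex 325/Em 420).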

The mark [1] stands for this setting: 48 h, Table 1, 2 days incubation.

SMILES strings stand for the structures. Like-named read-outs stand apart in the source and are kept apart here.

Regarding `CCCCCCOc1ccc([C@@H](O)[C@@H](CN2CC[C@@H](F)C2)NC(=O)CCCCCC(=O)c2ccc(OC)cc2)cc1` [Compound 371], the IC50 (Table 3 (IC 50 Values)) is not above 100 nM. The same measure, in the same setting: under `CCCCCCOc1ccc([C@@H](O)[C@@H](CN2CCCC2)NC(=O)CCCCC(=O)c2ccc(OCCOC)cc2)cc1` [Compound 443] stands not above 100 nM; under `O=C(CCCCC(=O)C1CCC(F)(F)CC1)N[C@H](CN1CCCC1)[C@H](O)c1ccc2c(c1)OCCO2` [Compound 558], 1000 to 3000 nM.

`CCCCOc1ccc([C@@H](O)[C@@H](CN2CC[C@H](O)C2)NC(=O)CCCCCOC2CCC2)cc1` [Compound 593]: the IC50 (Table 3 (IC 50 Values)) lay within 100 to 1000 nM. On the same count and under the same terms, under `O=C(CCCCS(=O)(=O)C1CCCCC1)N[C@H](CN1CCCC1)[C@H](O)c1ccc2c(c1)OCCO2` [Compound 557] stands 3000 to 10000 nM; under `COc1ccc(C(=O)CCCCC(=O)N[C@H](CN2CCCC2)[C@H](O)c2ccc(Cl)s2)cc1` [Compound 494], 100 to 1000 nM.

Turning to `COc1ccc(CCOc2ccc([C@@H](O)[C@@H](CN3CCCC3)NC(=O)CCCCC(=O)c3ccc(OC)cc3)cc2)cc1` [Compound 440], the IC50 (Table 3 (IC 50 Values)) was not above 100 nM. For the molecule `COc1ccc(C(=O)CCCCCC(=O)N[C@H](CN2CCCC2)[C@H](O)c2ccc3c(c2)OCCO3)cc1` [Compound 156, N-((1R,2R)-1-(2,3-dihydrobenzo[β][1,4]dioxin-6-yl)-1-hydroxy-3-(pyrrolidin-1-yl)propan-2-yl)-7-(4-methoxyphenyl)-7-oxoheptanamide], the IC50 under setting [1] is not above 100 nM. The same measure, in the same setting: for `O=C(NCc1ccc(Cl)cc1)N[C@H](CN1CCCC1)[C@H](O)c1ccc2c(c1)OCCO2` [Compound 43, 1-(4-chlorobenzyl)-3-((1R,2R)-1-(2,3-dihydrobenzo[β][1,4]dioxin-6-yl)-1-hydroxy-3-(pyrrolidin-1-yl)propan-2-yl)urea] the value was not above 100 nM.

As for `O=C(CCCCOCC(F)(F)F)N[C@H](CN1CCCC1)[C@H](O)c1ccc2c(c1)OCCO2` [Compound 617], the IC50 (Table 3 (IC 50 Values)) was 1000 to 3000 nM. The same measure, in the same setting: for `O=C(CCCCCS(=O)(=O)C1CCCCC1)N[C@H](CN1CCCC1)[C@H](O)c1ccc2c(c1)OCCO2` [Compound 562] the value was 100 to 1000 nM.

Take `COc1ccc(OCCC(=O)N[C@H](CN2CCC[C@H]2C)[C@@H](O)c2ccc3c(c2)OCCO3)cc1` [Compound 528]: the IC50 (Table 3 (IC 50 Values)) was 1000 to 3000 nM. Turning to `O=C(CCCCC(=O)c1ccc(F)cc1)N[C@H](CN1C2CCC1CC2)[C@H](O)c1ccc2c(c1)OCCO2` [Compound 476], the IC50 (Table 3 (IC 50 Values)) fell in the range of 100 to 1000 nM. For the molecule `COc1ccc(OCCC(=O)N[C@H](CN2CC[C@@H](F)C2)[C@H](O)c2ccc3c(c2)OCCO3)cc1` [Compound 509], the IC50 (Table 3 (IC 50 Values)) is 100 to 1000 nM.

With `COc1ccc([C@@H](O)[C@@H](CN2CCCC2)NC(=O)CCCOc2ccc(C(C)=O)cc2)cc1OC` [Compound 278], the IC50 (48 h, Table 2, 2 days incubation) is more than 10000 nM. In the case of `COc1ccc(C(=O)CCCCCC(=O)N[C@H](CNC(C)C)C(O)c2ccc3c(c2)OCCO3)cc1` (stereo partly shown) [Compound 465], the IC50 (Table 3 (IC 50 Values)) was in the range of 100 to 1000 nM.

Consider `CCCCOc1ccc([C@@H](O)[C@@H](CN2CCCC2)NC(=O)CCCCC(=O)c2ccc(OC)cc2)cc1` [Compound 434], for which the IC50 (Table 3 (IC 50 Values)) was not above 100 nM.

As for `COc1ccc(C(=O)CCCCC(=O)N[C@H](CN2CCCC2)[C@H](O)c2ccc(OCC3CCCCC3)cc2)cc1` [Compound 420], the IC50 (Table 3 (IC 50 Values)) is not above 100 nM. On the same count and under the same terms, under `COc1ccc(C(=O)CCC(=O)CCC(=O)N[C@H](CN2CCCC2)[C@H](O)c2ccc3c(c2)OCCO3)cc1` [Compound 378] stands not above 100 nM; under `Cc1ccc(OCCC(=O)N[C@H](CN2CC[C@H](O)C2)[C@H](O)c2ccc(OC(C)C)cc2)cc1` [Compound 738], not above 100 nM; under `O=C(N[C@H](CN1CCCC1)[C@H](O)c1ccc2c(c1)OCCO2)C1(C(F)(F)F)CCC1` [Compound 614], 3000 to 10000 nM. Same read-out and setting: under `O=C(CCCCOCC(F)(F)F)N[C@H](CN1CCCC1)[C@H](O)c1ccc(OCc2ccccc2)cc1` [Compound 647] stands 100 to 1000 nM; under `CCCCCCCC(=O)N[C@H](CN1[C@H](C)CC[C@H]1C)[C@H](O)c1ccc2c(c1)OCCO2` [Compound 549], 3000 to 10000 nM. `O=C(NCc1ccccc1)N[C@H](CN1CCCC1)[C@H](O)c1ccc2c(c1)OCCO2` [Compound 6, 1-benzyl-3-((1R,2R)-1-(2,3-dihydrobenzo[β][1,4]dioxin-6-yl)-1-hydroxy-3-(pyrrolidin-1-yl)propan-2-yl)urea]: the IC50 under setting [1] was in the range of 100 to 1000 nM. In the case of `COc1ccc(OCCC(=O)N(Cc2ccc(-c3nc(C)no3)cc2)[C@H](CN2CCCC2)[C@H](O)c2ccc(O)cc2)cc1` [Compound 721], under “Table 3 (IC 50 Values)”, the IC50 was 3000 to 10000 nM. Regarding `CCCCCCCCCCCCNC(=O)N[C@H](CN1CCCC1)[C@H](O)c1ccc2c(c1)OCCO2` [Compound 7, 1-((1R,2R)-1-(2,3-dihydrobenzo[β][1,4]dioxin-6-yl)-1-hydroxy-3-(pyrrolidin-1-yl)propan-2-yl)-3-dodecylurea], the IC50 under setting [1] was not above 100 nM.

Consider `COc1ccc(C(=O)CCCCC(=O)N[C@H](CN2CCCC2)[C@H](O)/C=C/c2ccccc2)cc1` [Compound 395], for which, for the setting “Table 3 (IC 50 Values)”, the IC50 is 3000 to 10000 nM.

In the case of `COc1ccc(C(=O)CCCCC(=O)N(Cc2ccccn2)[C@H](CN2CCCC2)[C@H](O)c2ccc(O)cc2)cc1` [Compound 422], under “Table 3 (IC 50 Values)”, the IC50 fell in the range of 3000 to 10000 nM. Same read-out and setting: for `COc1ccc(C(=O)CCCC(=O)N[C@H](CN2CCCC2)[C@H](O)c2ccc(Cl)cc2)cc1` [Compound 383] the value was 100 to 1000 nM; for `O=C(CCCCCC(=O)c1ccc(F)cc1)N[C@H](CN1CC[C@H](O)C1)[C@H](O)c1ccc2c(c1)OCCO2` [Compound 653], not above 100 nM; for `O=C(Cc1ccc(OC(F)(F)F)cc1)N[C@H](CN1CCCC1)[C@H](O)c1ccc2c(c1)OC(F)(F)C(F)(F)O2` [Compound 398], 3000 to 10000 nM. For `COc1ccc(C(=O)CCCCC(=O)N[C@H](CN2CCCC2)[C@H](O)c2ccc(C)c(F)c2)cc1` [Compound 351], for the setting “Table 3 (IC 50 Values)”, the IC50 fell in the range of 100 to 1000 nM. The same measure, in the same setting: under `CCCCCCCC(=O)N[C@H](Cn1ccnc1)[C@H](O)c1ccc2c(c1)OCCO2` [Compound 507] stands 100 to 1000 nM. The same measure, in the same setting: for `COc1ccc(C(=O)CCCCCC(=O)N[C@H](CNCC(C)(C)C)[C@H](O)c2ccc3c(c2)OCCO3)cc1` [Compound 466] the value was 3000 to 10000 nM; for `COc1ccc(OCCC(=O)N[C@H](CN2CC[C@H](F)C2)[C@H](O)c2ccc3c(c2)OCCO3)cc1` [Compound 511], 3000 to 10000 nM; for `COc1ccc(OCCC(=O)N[C@H](CN2CCCC(C)C2)[C@H](O)c2ccc3c(c2)OCCO3)cc1` (stereo partly shown) [Compound 608], 3000 to 10000 nM. The same measure, in the same setting: for `CCCCCCOc1ccc([C@@H](O)[C@@H](CN2CC[C@H](O)C2)NC(=O)CCCCC(=O)c2ccc(OC)cc2)cc1` [Compound 368] the value was not above 100 nM.
